From paper PMC5559473, “Screening of TB Actives for Activity against Nontuberculous Mycobacteria Delivers High Hit Rates” (Frontiers in Microbiology, 2017)
In brackets after ≈: the same amount, converted by molar mass. Several values for one entry are separate records, joined by “and”; a condition that tells them apart may be missing. Identical values can stand only once. Like-named read-outs stand apart in the source and are kept apart here.

Assays:
[1] = system: M. tuberculosis H37Rv; assay: Dose-response growth inhibition (broth microdilution); type: cell-based; conditions: Mycobacterium tuberculosis, 168 h, M. tuberculosis H37Rv, 7 days; for MIC50: concentration that inhibits 50% of growth, read-out: MIC50; for MIC90: concentration that inhibits 90% of growth, read-out: MIC90
[2] = system: M. abscessus Bamboo; assay: as above; type: cell-based, Mycobacterium abscessus; conditions: Mycobacteroides abscessus; for MIC50: read-out: MIC50
[3] = system: M. avium 11; assay: as above; type: cell-based, Mycobacterium avium; conditions: for MIC50: read-out: MIC50
[4] = system: M. abscessus Bamboo; assay: Bactericidal assay (CFU, fold kill); type: cell-based, Mycobacterium abscessus; conditions: for Fold kill at MIC90: 10^7 CFU/mL exposed to MIC90 for 3 days, CFU vs starting inoculum
[5] = system: M. avium 11; assay: Bactericidal assay (CFU, fold kill); type: cell-based, Mycobacterium avium; conditions: for Fold kill at MIC90: 10^7 CFU/mL exposed to MIC90 for 4 days, CFU vs starting inoculum
[6] = system: M. tuberculosis; design: method as in http://www.pathogenbox.org/; conditions: as reported by MMV, ref http://www.pathogenbox.org/; cited from earlier work
[7] = rat, in vivo, cited from earlier work
[8] = system: M. avium 11; assay: Single point growth inhibition screening assay; type: cell-based, Mycobacterium avium; conditions: M. avium 11, 20 μM, 4 days
[9] = system: M. abscessus; conditions: cited from earlier work
[10] = 72 h, M. abscessus Bamboo, 3 days
[11] = 72 h, M. abscessus Bamboo, 3 days, read-out: MIC90
[12] = Mycobacterium avium, 96 h, M. avium 11, 4 days
[13] = Mycobacterium avium, 96 h, M. avium 11, 4 days, read-out: MIC90

Row | SMILES | MIC50 [1] [µM] | MIC90 [1] [µM] | MIC50 [2, 10] [µM] | MIC90 [2, 11] [µM] | MIC50 [3, 12] [µM] | MIC90 [3, 13] [µM] | Fold kill at MIC90 [5] | Reported MIC [6] [µM] | AUCinf ([7]; iv, 1 mg/kg) [ng·h/mL] | AUClast ([7]; iv, 1 mg/kg) [ng·h/mL] | C0 ([7]; iv, 1 mg/kg) [ng/mL] | Cl ([7]; iv, 1 mg/kg) [mL/min/kg] | AUClast ([7]; po, 5 mg/kg) [ng·h/mL] | tmax ([7]; po, 5 mg/kg) [min] | %F [7] [%] | Fold kill at MIC90 [4] | Activity in primary screen (hit = equal or more than 80% growth inhibition) [8] | further results
1 | CN1CCN(CCCOc2ncc(Nc3ncc(-c4ccc(C(F)(F)F)c(F)c4)nc3C(N)=O)cn2)CC1 [MMV687812] | < 0.2 | 2.2 (≈ 1.18 µg/mL) | 6 (≈ 3.21 µg/mL) | > 50 | 25 (≈ 13.4 µg/mL) | > 50 | NK (NK, “no kill,” i.e., CFU reduction < 10-fold at MIC90) | 1.2 | 801 | 381 | 265 | 20.8 | 962 | 420 | 50 |  |  | MIC90 ([2]; read-out: Concentration at which 80% growth inhibition was achieved (printed in MIC90 column)): 12 µM (≈ 6.41 µg/mL); Fold kill (Fold kill at MIC90) ([4]; at 12 μM (80% growth inhibition), MIC90 not reached): NK^∧ (NK, “no kill,” i.e., CFU reduction < 10-fold at MIC90); AUCinf ([7]; po, 5 mg/kg): 2450 ng·h/mL
2 | CC(=O)NCC1CN(c2ccc(-c3ccc(CO)cc3)c(F)c2)C(=O)O1 (centres unmarked) [MMV688508] | < 0.2 | 0.3 (≈ 0.108 µg/mL) | 2.2 (≈ 0.788 µg/mL) | 12 (≈ 4.3 µg/mL) | 0.6 (≈ 0.215 µg/mL) | 8 (≈ 2.87 µg/mL) | NK (NK, “no kill,” i.e., CFU reduction < 10-fold at MIC90) | 0.4 | 156 | 156 | 1310 | 280 | 1.45 | 15 | <1 | NK (NK, “no kill,” i.e., CFU reduction < 10-fold at MIC90) |  | 
3 | COc1ccc2nccc(NC(=O)C3CCN(CCc4ccc(Cl)cc4)CC3)c2n1 [MMV688844] | 0.2 (≈ 0.085 µg/mL) | 2.8 (≈ 1.19 µg/mL) | 4.5 (≈ 1.91 µg/mL) | 11 (≈ 4.67 µg/mL) | 2 (≈ 0.85 µg/mL) | > 50 |  | 0.4 | 167 | 164 | 116 | 102 |  |  |  | 100 fold |  | MIC90 ([3]; Mycobacterium avium, 11, read-out: Concentration at which 80% growth inhibition was achieved (printed in MIC90 column)): 6 µM (≈ 2.55 µg/mL); Fold kill (Fold kill at MIC90) ([5]; at 6 μM (80% growth inhibition), MIC90 not reached): NK^# (NK, “no kill,” i.e., CFU reduction < 10-fold at MIC90)
4 | O=C(N[C@H](Cc1ccccc1)C(=O)Nc1ccccc1N1CCOCC1)c1cccs1 [MMV688845] | < 0.2 | 1.7 (≈ 0.74 µg/mL) | 1.5 (≈ 0.653 µg/mL) | 7 (≈ 3.05 µg/mL) | 0.6 (≈ 0.261 µg/mL) | 3 (≈ 1.31 µg/mL) | NK (NK, “no kill,” i.e., CFU reduction < 10-fold at MIC90) | 1.2 | 174 | 171 | 716 | 96.3 | 3.95 | 22.5 | <1 | 10 fold |  | 
5 | CC(C)/N=c1\cc2n(-c3ccc(Cl)cc3)c3ccccc3nc-2cc1Nc1ccc(Cl)cc1 [clofazimine] |  |  |  |  |  |  |  |  |  |  |  |  |  |  |  |  | M. avium-specific hits | 
6 | C[C@]1(COc2ccc(N3CCC(Oc4ccc(OC(F)(F)F)cc4)CC3)cc2)Cn2cc([N+](=O)[O-])nc2O1 [delamanid] |  |  |  |  |  |  |  |  |  |  |  |  |  |  |  |  | M. avium-specific hits | 
7 | C[C@@H](O)[C@H]1C(=O)N2C(C(=O)O)=C(SCCN=CN)C[C@H]12 [imipenem] |  |  |  |  |  |  |  |  |  |  |  |  |  |  |  |  |  | MIC ([9]; ref Lavollay et al., 2014): around 27 μM and ~8 mg/L
8 | OC(c1cc(C(F)(F)F)nc2c(C(F)(F)F)cccc12)C1CCCCN1 (centres unmarked) [mefloquine] |  |  |  |  |  |  |  |  |  |  |  |  |  |  |  |  | M. avium-specific hits | 
9 | CO[C@H]1/C=C/O[C@@]2(C)Oc3c(C)c(O)c4c(O)c(c(/C=N/N5CCN(C)CC5)c(O)c4c3C2=O)NC(=O)/C(C)=C\C=C\[C@H](C)[C@H](O)[C@@H](C)[C@@H](O)[C@@H](C)[C@H](OC(C)=O)[C@@H]1C [rifampicin] |  |  |  |  |  |  |  |  |  |  |  |  |  |  |  |  | M. avium-specific hits | MIC ([9]; ref Aziz et al., 2017): ≥ 37 µM
10 | [H]/N=C(/N)N[C@H]1[C@H](O)[C@@H](O)[C@H](O[C@@H]2O[C@@H](C)[C@](O)(C=O)[C@H]2O[C@@H]2O[C@@H](CO)[C@H](O)[C@@H](O)[C@@H]2NC)[C@@H](N/C(N)=N\[H])[C@@H]1O [streptomycin] |  |  |  |  |  |  |  |  |  |  |  |  |  |  |  |  | M. avium-specific hits | 
